Values quoted from earlier work as cited in patent US11266662B2, “Ganaxolone for use in prophylaxis and treatment of postpartum depression” (Marinus Pharmaceuticals, Inc., priority 2018, dated 2022).

Tested on: patients
Settings: 60 μg and 90 μg brexanolone dose regimens, IV infusion; cited from earlier work

For CC(=O)[C@H]1CC[C@H]2[C@@H]3CC[C@H]4C[C@H](O)CC[C@]4(C)[C@H]3CC[C@]12C [brexanolone], the “Patients with abrupt loss of consciousness, syncope or presyncope” value is given as “about 4%”.
